Series [1] concerns CMT № 1 (Extraskeletal Ewing’s Sarcoma). Put plainly: MTT cytotoxicity, primary culture of soft tissue sarcoma CMT № 1. The format is cell-based. The settings on record: Homo sapiens, 48 h. The source says:
(§1) It is believed that such cultures have a molecular profile that corresponds more with cells from the human body, in comparison with that of stable cultures of tumor cells (Table 3).
(§2) Cell cultures used in the work: adhesive cultures HBL-100 cells (cells of a normal mammary gland epithelium, immortalized by the SV40 virus and acquired tumorigenicity); MCF-7 breast cancer cells; PC-3 prostate adenocarcinoma cells; HCT-116 colorectal cancer cells; non-small cell lung cancer cells A549; human embryonic kidney cells HEK293; suspension cultures (NCI-H929 and RPMI8226 multiple myeloma cells), K562 chronic myeloid leukemia cells; THP-1 acute monocytic leukemia cells; and Jurkat acute T-cell leukemia cells. We also used several primary cultures of soft tissue sarcomas at 3–4passeges, kindly provided by T.I. Fetisov (The Ethics Committee of N.N. Blokhin NMRCO, protocol code 18-28-09095 and date of approval 28 September 2018).
(§3) Modifications of cell lines: K562/i-S9 is a clone obtained after transfection of K562 cells with the ABCB1 (MDR1) gene-encoding P-glycoprotein [36]. Cells HBL-100/Dox and K562/i-S9_Dox are cells obtained by long-term selection with increasing concentrations of doxorubicin (Sigma-Aldrich, St. Louis, MO, USA) from HBL-100 and K562/i-S9 cells, respectively. MCF-7, A594 cells, and primary cultures of soft tissue sarcomas were cultured in DMEM medium (PanEko, Russia), PC-3 and HCT-116 cells and all suspension cultures in RPMI1640 medium (PanEko, Russia) supplemented with 10% fetal bovine serum (GE Healthcare LifeSciences, USA), and gentamicin at a concentration of 40 μg/mL at 37 °C and 5% CO2.
(§4) Cells MCF-7, PC-3, A549, and HCT-116, and primary cultures of STSwere seeded in 96-well plates, 6 × 10^3 cells per well in 90 μL of culture medium. Suspension cultures were seeded at a concentration of 25 × 10^3 cells per well in 135 μL of medium. The test substances were dissolved in DMSO (Applichem, Council Bluffs, IA, USA) until a concentration of 1 × 10^−^2 M was obtained; for the subsequent dilution of the substances, a serum-free culture medium was used. The next day, for adhesive cultures, and on the same day, for suspension cultures, substances were added to the plates in a volume of 10 μL (adhesive cultures) and 15 μL (suspension cultures) per well at various concentrations; each concentration was added in 3–4 repetitions. The cells were cultured in the presence of substances for 48 h. […] The optical density was determined using a Multiskan FC spectrophotometer (Thermo Scientific, Waltham, MA, USA) at a wavelength of 540 nm.
(§5) Based on the results of the experiments, a schedule was plotted of the dependence of the percentage of surviving cells (from control) on the concentration of the compound, and the sought concentration IC50 was calculated. […]

For another series, the system named is A549. The series is described as follows: MTT cytotoxicity, A549 non-small cell lung cancer cells. The class given is cell-based, human. The settings on record: Homo sapiens, A549, adhesive tumor culture, 48 h.
Text: as §2, §3
(§6) Cells MCF-7, PC-3, A549, and HCT-116, and primary cultures of STSwere seeded in 96-well plates, 6 × 10^3 cells per well in 90 μL of culture medium. Suspension cultures were seeded at a concentration of 25 × 10^3 cells per well in 135 μL of medium. The test substances were dissolved in DMSO (Applichem, Council Bluffs, IA, USA) until a concentration of 1 × 10^−^2 M was obtained; for the subsequent dilution of the substances, a serum-free culture medium was used. The next day, for adhesive cultures, and on the same day, for suspension cultures, substances were added to the plates in a volume of 10 μL (adhesive cultures) and 15 μL (suspension cultures) per well at various concentrations; each concentration was added in 3–4 repetitions. The cells were cultured in the presence of substances for 48 h. Then, MTT reagent (PanEko, Moscow, Russia) was added to the wells at a concentration of 5 mg/mL in a volume of 20 μL per well. After 1.5–2 h, the medium with the reagent was removed, and the precipitate of the crystals of formazan was dissolved in 60 μL of DMSO. The optical density was determined using a Multiskan FC spectrophotometer (Thermo Scientific, Waltham, MA, USA) at a wavelength of 540 nm.
(§7) Based on the results of the experiments, a schedule was plotted of the dependence of the percentage of surviving cells (from control) on the concentration of the compound, and the sought concentration IC50 was calculated. The experiments were carried out in 3–4 times.

Another series deals with HCT-116. The series is described as follows: MTT cytotoxicity, HCT-116 colorectal cancer cells. The class given is cell-based, human. The settings on record: Homo sapiens, HCT-116, adhesive tumor culture, 48 h.
Text: as §2, §3, §6, §7

Series [2] relates to CMT № 2 (Malignant Schwannoma). The series is described as follows: MTT cytotoxicity, primary culture of soft tissue sarcoma CMT № 2. The format is cell-based. The settings on record: Homo sapiens, 48 h.
Text: as §1, §2, §3, §4, §5

For the next series, the system named is HEK293. The series is described as follows: MTT cytotoxicity, human embryonic kidney cells HEK293. The format is cell-based. The settings on record: 48 h.
Text: as §2, §6, §7

The test system of the next series is RPMI8226. The series is described as follows: MTT cytotoxicity, RPMI8226 multiple myeloma cells. The class given is cell-based. The settings on record: Homo sapiens, RPMI-8226, suspension culture, 48 h.
Text: as §2, §3, §6, §7

A further series has as its system NCI-H929. The series is described as follows: MTT cytotoxicity, NCI-H929 multiple myeloma cells. The class given is cell-based. The settings on record: Homo sapiens, suspension culture, 48 h.
Text: as §2, §3, §6, §7

The subject of another series is K562. The series is described as follows: MTT cytotoxicity, K562 chronic myeloid leukemia cells. The format is cell-based. The settings on record: Homo sapiens.
Text: as §2, §3, §6, §7

Another series deals with Jurkat. The series is described as follows: MTT cytotoxicity, Jurkat acute T-cell leukemia cells. The class given is cell-based. The settings on record: Homo sapiens, suspension culture, 48 h.
Text: as §2, §3, §6, §7

The test system of the next series is PC3. Put plainly: MTT cytotoxicity, PC-3 prostate adenocarcinoma cells. The settings on record: Homo sapiens, PC-3, adhesive tumor culture, 48 h. The format is cell-based, human.
Text: as §2, §3, §6, §7

Another series has as its system THP-1. The series is described as follows: MTT cytotoxicity, THP-1 acute monocytic leukemia cells. The format is cell-based. The settings on record: Homo sapiens, suspension culture, 48 h.
Text: as §2, §3, §6, §7

In series [3] the test system is CMT № 3 (Epithelial Sarcoma (Metastasis)). The series is described as follows: MTT cytotoxicity, primary culture of soft tissue sarcoma CMT № 3. The format is cell-based. The settings on record: Homo sapiens, 48 h.
Text: as §1, §2, §3, §4, §5

Another series has as its system MCF-7. The series is described as follows: MTT cytotoxicity, MCF-7 breast cancer cells. The class given is cell-based. The settings on record: Homo sapiens, MCF7, adhesive tumor culture, 48 h.
Text: as §2, §3, §6, §7

The next series relates to K562/i-S9_Dox. The series is described as follows: MTT cytotoxicity, resistant K562/i-S9_Dox cells (P-gp overexpression). The format is cell-based, human.
Text: (§8) At the next stage, the cytotoxic activity of compounds 1, 2, and 9 (Scheme 2) was investigated on several pairs of cell lines that differ in the expression of P-gp and the method by which they were obtained. K562/i-S9 cells are the result of the ABCB1 transfection into K562 cells, which increases P-gp expression, but should not seriously affect other signaling pathways that could lead to drug resistance. K562/i-S9_Dox cells were obtained from K562/i-S9 by selection with low concentrations of doxorubicin to increase P-gp expression. Subline HBL-100/Dox is a derivative of HBL-100 cells, obtained by long-term selection with increasing concentrations of doxorubicin, which led not only to an increase in P-gp expression, but also to a change in the signaling pathways in this subline. Cells of the K562/i-S9_Dox subline express the highest level of P-gp: 94.7% ± 2.3 (p < 0.0001 relative to K562, and p = 0.04 relative to K562/i-S9). In cells of the K562/i-S9 line, the expression of P-gp is 80% ± 8.2 (p < 0.0001 relative to K562). At 0.7% ± 0.5, P-gp is practically not expressed in K562 cells (Figure 1).
as §3, §6, §7

The subject of a further series is HBL-100/Dox. Put plainly: MTT cytotoxicity, resistant HBL-100/Dox cells. The class given is cell-based, human. The settings on record: for IC50: Homo sapiens, HBL-100, resistant version, MTT, 48 h.
Text: At the next stage, the cytotoxic activity of compounds 1, 2, and 9 (Scheme 2) was investigated on several pairs of cell lines that differ in the expression of P-gp and the method by which they were obtained. […] K562/i-S9_Dox cells were obtained from K562/i-S9 by selection with low concentrations of doxorubicin to increase P-gp expression.
as §3, §6
The experiments were carried out in 3–4 times.

A further series concerns K562/i-S9. Put plainly: MTT cytotoxicity, resistant K562/i-S9 cells (ABCB1 transfected). The class given is cell-based, human.
Text: as §8, §3, §6, §7

Another series relates to HBL-100. Put plainly: MTT cytotoxicity, sensitive HBL-100 cells. The format is cell-based. The settings on record: Homo sapiens, 48 h.
Text: as §2, §6, §7

Setting [4] is: K562, suspension culture, 48 h (Table 2).

With `C=C1C2=C(C(=O)N1OC)[C@@H](N(C)CCO)[C@@](C)(O)[C@H](CCCCC)O2` [Compound 8, (2S,3R,4R)-3-hydroxy-4-[(2-hydroxyethyl)(methyl)amino]-6-methoxy-3-methyl-7-methylene-2-pentyl-3,4,6,7-tetrahydropyrano[2,3-c]pyrrol-5(2H)-one], the IC50 in series [1] was 3.9 ± 0.8 µM; in the series on A549, 16.3 ± 0.9 µM; with HCT-116, 7.5 ± 1 µM; in series [2] it was 2.3 ± 0.8 µM; in the series with HEK293, 3.8 ± 0.2 µM; in the series with RPMI8226, 1.5 ± 0.4 µM. Further, the IC50 came to 0.9 ± 0.3 µM with NCI-H929; 3.4 ± 0.3 µM in the series with K562 (setting [4]); 1 ± 0.3 µM with Jurkat; 3.3 ± 0.6 µM in the series on PC3; 1.8 ± 0.2 µM in the series with THP-1; 4.8 ± 0.5 µM in [3]. The midpoint of inhibition with MCF-7, the IC50, lay at 1.8 ± 0.4 µM.
In the case of `COc1cccc2c1C(=O)c1c(O)c3c(c(O)c1C2=O)C[C@@](O)(C(=O)CO)C[C@@H]3O[C@H]1C[C@H](N)[C@H](O)[C@H](C)O1` [Doxorubicin, doxorubicin, reference compound], the IC50 with K562/i-S9_Dox (Homo sapiens, K562, resistant version, doxorubicin selected, MTT, 48 h) is 10.3 ± 1.2 µM; with HBL-100/Dox, 128 ± 7.4 µM; with K562/i-S9 (Homo sapiens, K562i/S9, resistant version, ABCB1 transfected, MTT, 48 h), 3.9 ± 1.6 µM; in the series on K562 (sensitive K562 cells (Table 4), 48 h), 0.36 ± 0.17 µM; with HBL-100, 0.23 ± 0.03 µM. The “resistance of K562/i-S9_Dox cells relative to K562” value in the series with K562/i-S9_Dox (ratio of IC50 values, Table 4) was determined as 28 times. Besides, the “resistance of K562/i-S9_Dox relative to K562/i-S9” value in the series with K562/i-S9_Dox (ratio of IC50 values, Table 4) is recorded as 2.6 times. The “resistance of HBL-100/Dox cells relative to HBL-100” value in the series with HBL-100/Dox (ratio of IC50 values, Table 5) is 556 times. Besides, the “resistance of K562/i-S9 cells relative to K562” value in the series with K562/i-S9 (ratio of IC50 values, Table 4) worked out at 11 times.
In the case of `COc1cc([C@@H]2c3cc4c(cc3[C@@H](O[C@@H]3O[C@@H]5CO[C@@H](C)O[C@H]5[C@H](O)[C@H]3O)[C@H]3COC(=O)[C@H]23)OCO4)cc(OC)c1O` [Etoposide, etoposide, reference compound], the IC50 in the series with A549 was determined as 65.3 ± 5.2 µM; with HCT-116, 21 ± 9.9 µM; in the series with HEK293 it was 2 ± 0.5 µM; in the series with HBL-100/Dox, 111 ± 8.3 µM; in the series on RPMI8226, 7.2 ± 1.9 µM; with NCI-H929, 1.4 ± 0.5 µM. Besides, the IC50 in the series on K562 (setting [4]) was 5.5 ± 3 µM; in the series with Jurkat, 0.9 ± 0.3 µM; with PC3 it was 27.1 ± 3.2 µM; with HBL-100, 4.7 ± 0.9 µM; with THP-1, 1.8 ± 0.2 µM; in the series with MCF-7, 8.9 ± 2.3 µM.

By IC50 is commonly meant the concentration that inhibits the measured activity by half.

For the origin of these results see article PMC9030166, “Natural Phaeosphaeride A Derivatives Overcome Drug Resistance of Tumor Cells and Modulate Signaling Pathways” (Pharmaceuticals, 2022).
